From patent US20240108629A1, “AZAQUINAZOLINE DERIVATIVES FOR USE IN TREATING OR PREVENTING DIROFILARIA INFECTION IN A MAMMAL” (Liverpool School of Tropical Medicine, priority 2021, published 2024)

How the values were obtained:
[1] = tested on: D. immitis L3-L4 larval Wolbachia in NSG mice; assay: In vivo D. immitis larvae mouse assay (Example 3A); conditions: for D. immitis L4 Efficacy (median % reduction Wolbachia): larvae retrieved 2 weeks after infection
D. immitis mf Wolbachia = assay: In vitro D. immitis microfilariae assay (Wolbachia wsp copy number by qPCR); format: cell-based; conditions: six-day continuous exposure in vitro
[2] = tested on: D. immitis L3-L4 larval Wolbachia in NSG mice; assay: In vivo D. immitis larvae mouse assay (Example 3B); conditions: for n larvae depleted ≥50% (number/total) / n larvae depleted ≥50% (percentage of larvae): oral 200 mpk bid x 1; for D. immitis L4 Efficacy (median % reduction Wolbachia): oral 200 mpk bid x 1 (single day dosing), larvae retrieved 2 weeks after infection
D. immitis L4 Wolbachia = assay: In vitro D. immitis L4 larvae assay (Wolbachia wsp copy number by qPCR); format: cell-based; conditions: for D. immitis L4 Efficacy (median % reduction Wolbachia): six-day continuous exposure in vitro

C[C@H]1COCCN1c1nc(NCc2cccnc2C(F)(F)F)c2cccnc2n1 [Compound A, (S)-2-(3-methylmorpholino)-N-((2-(trifluoromethyl)pyridin-3-yl)methyl)pyrido[2,3-d]pyrimidin-4-amine]
n larvae depleted ≥80% (number/total) ([1]; oral 200 mpk bid x 2): 10/11
n larvae depleted ≥80% (percentage of larvae) ([1]; oral 200 mpk bid x 2): (90.9%)
D. immitis L4 Efficacy (median % reduction Wolbachia) ([1]; oral 200 mpk bid x 2 (days 1-2), 200 mg/kg): 89.7%
D. immitis mf Efficacy (median % reduction Wolbachia) (D. immitis mf Wolbachia; 50 nM): 64.1%
D. immitis mf Efficacy (median % reduction Wolbachia) (D. immitis mf Wolbachia; 200 nM): 88.8%
D. immitis mf Efficacy (median % reduction Wolbachia) (D. immitis mf Wolbachia; 5000 nM): 96.0%
n larvae depleted ≥50% (number/total) [2]: 4/5
n larvae depleted ≥50% (percentage of larvae) [2]: (80%)
D. immitis L4 Efficacy (median % reduction Wolbachia) ([2]; 200 mg/kg): 52.1%

CC1(C)CCN(c2nc(NCc3cccnc3C(F)(F)F)c3cccnc3n2)CC1 [Compound B, 2-(4,4-dimethylpiperidin-1-yl)-N-((2-(trifluoromethyl)pyridin-3-yl)methyl)pyrido[2,3-d]pyrimidin-4-amine]
D. immitis L4 Efficacy (median % reduction Wolbachia) (D. immitis L4 Wolbachia; 1 nM): 45.4%
D. immitis L4 Efficacy (median % reduction Wolbachia) (D. immitis L4 Wolbachia; 10 nM): 50.7%
D. immitis L4 Efficacy (median % reduction Wolbachia) (D. immitis L4 Wolbachia; 50 nM): 57.4%
Wolbachia depletion in D. immitis L4 (D. immitis L4 Wolbachia; doses between 50-10 nM, in vitro): > 50%
D. immitis mf Efficacy (median % reduction Wolbachia) (D. immitis mf Wolbachia; 0.5 nM): 63.9%
D. immitis mf Efficacy (median % reduction Wolbachia) (D. immitis mf Wolbachia; 50 nM): 53.6%

FC1(F)CCN(c2nc(NCc3ccccc3C(F)(F)F)c3cccnc3n2)CC1 [Compound C, 2-(4,4-difluoropiperidin-1-yl)-N-(2-(trifluoromethyl)benzyl)pyrido[2,3-d]pyrimidin-4-amine]
n larvae depleted ≥50% (number/total) [2]: 2/3
n larvae depleted ≥50% (percentage of larvae) [2]: (67%)
D. immitis L4 Efficacy (median % reduction Wolbachia) [2]: 61.7%

FC(F)(F)OC1CCN(c2nc(NCc3cccnc3C(F)(F)F)c3cccnc3n2)CC1 [Compound D, 2-(4-(trifluoromethoxy)piperidin-1-yl)-N-((2-(trifluoromethyl)pyridin-3-yl)methyl)pyrido[2,3-d]pyrimidin-4-amine]
n larvae depleted ≥50% (number/total) [2]: 8/12
n larvae depleted ≥50% (percentage of larvae) [2]: (67%)
D. immitis L4 Efficacy (median % reduction Wolbachia) [2]: 53.6%

C[C@H]1c2cccc(O)c2C(=O)C2=C(O)[C@]3(O)C(=O)C(C(N)=O)=C(O)[C@@H](N(C)C)[C@@H]3[C@@H](O)[C@@H]21 [Doxycycline, doxycycline, reference compound]
D. immitis L4 Efficacy (median % reduction Wolbachia) (D. immitis L4 Wolbachia; 5000 nM): 65.9%
n larvae depleted ≥80% (number/total) ([1]; oral 50 mpk qd x 7): 4/9
n larvae depleted ≥80% (percentage of larvae) ([1]; oral 50 mpk qd x 7): (44.4%)
D. immitis L4 Efficacy (median % reduction Wolbachia) ([1]; oral 50 mpk qd x 7 (days 1-7 post-infection)): 69.6%
D. immitis mf Efficacy (median % reduction Wolbachia) (D. immitis mf Wolbachia; 50 nM): 10.0%
D. immitis mf Efficacy (median % reduction Wolbachia) (D. immitis mf Wolbachia; 5000 nM): 58.8%
